# Experimental data taken from ChEMBL document CHEMBL1126091, “Ring substituted and other conformationally constrained tyrosine analogues of [D-Pen2,D-Pen5]enkephalin with delta opioid receptor selectivity” (J Med Chem, 1992).
# How the values were obtained:
# [1] = molecular target: T1, Delta-type opioid receptor (Mus musculus, UniProt P32300); assay: Compound was evaluated for […] at Opioid receptor delta 1
# [2] = molecular target: T2, Delta-type opioid receptor (Rattus norvegicus, UniProt P33533); assay: Compound was evaluated for the binding affinity in comparison with [3H][p-Cl-Phe4]-DPDPE (delta opioid receptor selective ligand)
# [3] = molecular target: T3, Mu-type opioid receptor (Rattus norvegicus, UniProt P33535); assay: Compound was evaluated for its ability to displace [3H]- CTOP (mu opioid receptor selective ligand)
# [4] = Macroscopic pKa value of the compound; assay type: physicochemical
# [5] = molecular target: Delta-type opioid receptor (Homo sapiens) (UniProt P41143); assay: Compound was evaluated for the percentage of maximum inhibition at opioid receptor delta
# [6] = molecular target: T2, Delta-type opioid receptor; assay: Compound was evaluated for the binding affinity in comparison with [3H]- DPDPE (opioid receptor delta selective ligand)
# [7] = molecular target: T3, Mu-type opioid receptor; assay: Compound was evaluated for its ability to displace [3H]- CTOP (opioid receptor mu selective ligand)
# [8] = molecular target: T1, Delta-type opioid receptor; assay: Compound was evaluated for its inhibitory potency against opioid receptor delta of Mouse vas deferens; assay type: tissue-based
# [9] = molecular target: T2, Delta-type opioid receptor; assay: Compound was evaluated for the binding affinity in comparison with [3H][p-Cl-Phe4]-DPDPE (opioid receptor delta selective ligand)
# [10] = molecular target: T1, Delta-type opioid receptor; assay: Compound was evaluated for its inhibitory potency against Opioid receptor delta 1 of Mouse vas deferens; assay type: tissue-based
# T2 sequence (P33533 whole entry): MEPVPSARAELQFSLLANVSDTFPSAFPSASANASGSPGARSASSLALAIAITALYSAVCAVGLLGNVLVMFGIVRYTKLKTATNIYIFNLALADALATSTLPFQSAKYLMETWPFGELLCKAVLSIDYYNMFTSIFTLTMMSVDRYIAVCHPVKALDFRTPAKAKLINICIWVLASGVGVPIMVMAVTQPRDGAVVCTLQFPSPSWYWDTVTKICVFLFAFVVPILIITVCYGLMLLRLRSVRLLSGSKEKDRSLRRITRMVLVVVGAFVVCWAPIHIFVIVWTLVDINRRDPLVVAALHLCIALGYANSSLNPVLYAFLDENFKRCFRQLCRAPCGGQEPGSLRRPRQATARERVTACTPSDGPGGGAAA
# T1 sequence (P32300 whole entry): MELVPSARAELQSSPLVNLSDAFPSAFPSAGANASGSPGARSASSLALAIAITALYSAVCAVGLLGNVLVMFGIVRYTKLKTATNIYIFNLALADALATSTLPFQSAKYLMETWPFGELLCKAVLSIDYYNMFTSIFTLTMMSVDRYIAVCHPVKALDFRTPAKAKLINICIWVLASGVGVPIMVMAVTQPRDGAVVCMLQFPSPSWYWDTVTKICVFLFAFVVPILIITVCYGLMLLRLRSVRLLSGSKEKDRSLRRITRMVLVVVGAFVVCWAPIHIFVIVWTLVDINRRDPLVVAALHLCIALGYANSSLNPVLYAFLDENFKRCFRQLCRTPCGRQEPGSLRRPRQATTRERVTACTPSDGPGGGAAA
# T3 sequence (P33535 whole entry): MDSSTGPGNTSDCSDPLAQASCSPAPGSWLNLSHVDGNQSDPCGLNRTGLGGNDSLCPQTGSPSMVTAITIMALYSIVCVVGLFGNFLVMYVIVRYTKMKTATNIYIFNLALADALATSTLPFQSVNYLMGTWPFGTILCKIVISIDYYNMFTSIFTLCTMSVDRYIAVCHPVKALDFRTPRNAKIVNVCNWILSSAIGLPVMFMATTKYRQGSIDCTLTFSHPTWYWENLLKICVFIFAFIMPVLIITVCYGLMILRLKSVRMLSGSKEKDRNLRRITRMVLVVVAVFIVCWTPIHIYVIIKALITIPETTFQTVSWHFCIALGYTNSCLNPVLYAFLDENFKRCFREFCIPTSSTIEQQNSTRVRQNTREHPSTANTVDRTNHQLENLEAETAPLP
# Sequence of Delta-type opioid receptor (Homo sapiens) (P41143 whole entry): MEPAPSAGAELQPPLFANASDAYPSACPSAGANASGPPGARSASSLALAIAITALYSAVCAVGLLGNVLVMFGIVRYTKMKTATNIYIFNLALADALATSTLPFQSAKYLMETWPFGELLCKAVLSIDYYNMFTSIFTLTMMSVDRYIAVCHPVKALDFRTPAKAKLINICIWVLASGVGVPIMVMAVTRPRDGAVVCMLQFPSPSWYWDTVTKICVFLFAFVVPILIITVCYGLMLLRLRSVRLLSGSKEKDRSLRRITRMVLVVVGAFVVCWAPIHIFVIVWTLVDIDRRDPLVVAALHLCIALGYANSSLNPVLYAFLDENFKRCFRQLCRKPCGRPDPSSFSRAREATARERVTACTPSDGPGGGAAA
smiles,measurement,setting,value
Cc1cc(O)ccc1C[C@@H](N)C(=O)N[C@H]1C(=O)NCC(=O)N[C@@H](Cc2ccccc2)C(=O)N[C@@H](C(=O)O)C(C)(C)SSC1(C)C,IC50,[1],763 nM
same,IC50,[2],1130 nM
same,IC50,[3],16600 nM
COc1cc(C[C@H](N)C(=O)N[C@H]2C(=O)NCC(=O)N[C@@H](Cc3ccccc3)C(=O)N[C@@H](C(=O)O)C(C)(C)SSC2(C)C)ccc1O,pKa,[4],9.7
CC1(C)SSC(C)(C)[C@@H](NC(=O)[C@]2(N)CCC3C=C(O)C=CC3C2)C(=O)NCC(=O)N[C@@H](Cc2ccccc2)C(=O)N[C@H]1C(=O)O (stereo in doubt; 8) [listing 1 of 2 here],Emax,[5],31%
Cc1cc(O)ccc1C[C@H](N)C(=O)N[C@H]1C(=O)NCC(=O)N[C@@H](Cc2ccccc2)C(=O)N[C@@H](C(=O)O)C(C)(C)SSC1(C)C,IC50,[6],0.89 nM
same,IC50,[7],1170 nM
same,IC50,[8],4.52 nM
CC1(C)SSC(C)(C)[C@@H](NC(=O)[C@]2(N)CCC3C=C(O)C=CC3C2)C(=O)NCC(=O)N[C@@H](Cc2ccccc2)C(=O)N[C@H]1C(=O)O (stereo in doubt; 9) [listing 1 of 2 here],Emax,[5],79%
CC1(C)SSC(C)(C)[C@@H](NC(=O)[C@]2(N)CCC3C=C(O)C=CC3C2)C(=O)NCC(=O)N[C@@H](Cc2ccccc2)C(=O)N[C@H]1C(=O)O (stereo in doubt; 9) [listing 2 of 2 here],IC50,[9],2.36 nM
same,IC50,[7],1440 nM
same,IC50,[8],22 nM
CC1(C)SSC(C)(C)[C@@H](NC(=O)[C@@H](N)Cc2ccc(O)c([N+](=O)[O-])c2)C(=O)NCC(=O)N[C@@H](Cc2ccccc2)C(=O)N[C@H]1C(=O)O,pKa,[4],7.2
CC1(C)SSC(C)(C)[C@@H](NC(=O)[C@@H](N)Cc2ccc(O)c(N)c2)C(=O)NCC(=O)N[C@@H](Cc2ccccc2)C(=O)N[C@H]1C(=O)O,pKa,[4],10
C[C@@H](c1ccc(O)cc1)[C@@H](N)C(=O)N[C@H]1C(=O)NCC(=O)N[C@@H](Cc2ccccc2)C(=O)N[C@@H](C(=O)O)C(C)(C)SSC1(C)C,IC50,[1],698 nM
same,IC50,[2],20000 nM
same,IC50,[3],> 40000 nM
CC1(C)SSC(C)(C)[C@@H](NC(=O)[C@]2(N)CCC3C=C(O)C=CC3C2)C(=O)NCC(=O)N[C@@H](Cc2ccccc2)C(=O)N[C@H]1C(=O)O (stereo in doubt; 8) [listing 2 of 2 here],IC50,[9],24.5 nM
same,IC50,[7],2820 nM
same,IC50,[8],137 nM
CC1(C)SSC(C)(C)[C@@H](NC(=O)[C@@H](N)Cc2ccc(O)c(I)c2)C(=O)NCC(=O)N[C@@H](Cc2ccccc2)C(=O)N[C@H]1C(=O)O,pKa,[4],8.2
C[C@H](c1ccc(O)cc1)[C@H](N)C(=O)N[C@H]1C(=O)NCC(=O)N[C@@H](Cc2ccccc2)C(=O)N[C@@H](C(=O)O)C(C)(C)SSC1(C)C,IC50,[1],14.6 nM
same,IC50,[2],84.8 nM
same,IC50,[3],> 20000 nM
C[C@H](c1ccc(O)cc1)[C@@H](N)C(=O)N[C@H]1C(=O)NCC(=O)N[C@@H](Cc2ccccc2)C(=O)N[C@@H](C(=O)O)C(C)(C)SSC1(C)C,IC50,[10],20700 nM
same,IC50,[2],426 nM
same,IC50,[3],22800 nM
C[C@@H](c1ccc(O)cc1)[C@H](N)C(=O)N[C@H]1C(=O)NCC(=O)N[C@@H](Cc2ccccc2)C(=O)N[C@@H](C(=O)O)C(C)(C)SSC1(C)C,IC50,[1],243 nM
same,IC50,[2],440 nM
same,IC50,[3],18600 nM
